Tested on: carrageenan oedema
Test: Inhibition of carrageenan oedema formation
Type: in vivo
Conditions: rat, oral administration of 25 mg/kg
From the text: The compounds according to the invention are also active in vivo. […] The compounds according to the invention also reduce the formation of oedema in the model of carrageenan inflammation, (compare Table 3) and inhibit the formation of metastases from B-16 melanoma (method of Honn, et. al. Science 212, 1270, 1981).

SMILES	inhibition in vivo at 25 mg/kg [%]
Clc1ccc2c(c1)Nc1[nH]ncc1O2 [Compound 2]	57.8
Cc1ccc2c(c1)Nc1[nH]ncc1O2 [Compound 3]	41.4
c1ccc(-n2ncc3c2Nc2ccccc2O3)cc1 [Compound 9]	75.1
CN1c2ccccc2Oc2cn[nH]c21 [Compound 10]	73.4
O=S1(=O)c2ccccc2Nc2[nH]ncc21 [Compound 16]	45.4
CC(=O)n1cc2c(n1)N(C)c1ccccc1C2 [Compound 27]	62.4
COc1ccc2c(c1)N(C)c1[nH]ncc1O2 [Compound 36]	60

Tested on: Lipoxygenase in PMN Leucocytes
Test: Inhibition of lipoxygenase in PMN leucocytes (liberation of 5-HETE and leukotriene B4)
Type: cell-based, humans and rabbits
Conditions: in vitro
Protocol: The polymorphonuclear leucocytes of humans and of rabbits metabolise arachidonic acid to 5-hydroxy-5,8,11,14-eicosatetraenoic acid (5-HETE) and leukotriene B4 (5S, 12R-dihydroxy-6 cis, 8,10-trans-14 cis-eicosatetraenoic acid). The inhibition of the liberation of 5-HETE and leukotriene B4 from the leucocytes provides a measure of the lipoxygenase-inhibitory effect of the compounds according to the invention. (Compare Table 1).
The test with human leucocytes is carried out by the method of Borgeat and Samuelsson (j. Biol. Chem. 254; 2643, 1979 and Proc. Natl. Acad. Sci. USA, 76, 2148 (1979), and with rabbit leucocytes by the method of Walker and Parish (Inter. Archs. Allergy appl. Immun. 66, 83, 1981).

SMILES	Minimum concentration (g/ml) for inhibition of Lipoxygenase in PMN Leucocytes
Clc1cc(Cl)c2c(c1)Nc1[nH]ncc1O2	10^-6 g/ml
Cc1ccc2c(c1)Nc1c(cnn1-c1ccccc1)S2	10^-5 g/ml
CN1c2ccccc2Cc2cn(C)nc21	> 10^-5 g/ml
CN1c2ccccc2Cc2cnn(-c3ccccc3)c21	> 10^-5 g/ml
CN1c2ccccc2Cc2cnn(C(=O)c3ccc(Cl)cc3)c21	> 10^-5 g/ml
c1ccc(N2c3ccccc3Cc3cn[nH]c32)cc1	> 10^-5 g/ml
COc1ccc2c(c1)Nc1[nH]ncc1O2	< 10^-6 g/ml
CCN1c2cc(OC)ccc2Oc2cn[nH]c21	< 10^-6 g/ml
COc1ccc2c(c1)N(C)c1nn(C)cc1O2	> 10^-5 g/ml
Oc1ccc2c(c1)Nc1[nH]ncc1O2	< 10^-6 g/ml
COc1ccc2c(c1)Oc1cn[nH]c1N2	< 10^-6 g/ml
c1ccc(CN2c3ccccc3Oc3cn[nH]c32)cc1	10^-6 g/ml
CN1c2ccccc2Oc2cn(CCO)nc21	> 10^-5 g/ml
CCOC(=O)CN1c2ccccc2Oc2cn[nH]c21	> 10^-5 g/ml
CC(=O)n1cc2c(n1)N(C)c1ccccc1S2	> 10^-5 g/ml
CC(C)N1c2ccccc2Oc2cn[nH]c21	< 10^-6 g/ml
c1ccc2c(c1)Oc1cn[nH]c1N2CC1CCCCC1	10^-5 g/ml
COc1ccc2c(c1)Nc1c(cnn1C(C)=O)O2	10^-5 g/ml
CCN1c2cc(OCC(=O)O)ccc2Oc2cn(C)nc21	10^ -5 g/ml
CN1c2ccccc2Cc2cn(C(=O)OCc3ccccc3)nc21	> 10^-5 g/ml
Cn1cc2c(n1)N(c1ccccc1)c1ccccc1C2	> 10^-5 g/ml
Cn1ncc2c1N(c1ccccc1)c1ccccc1C2	> 10^-5 g/ml
CN1c2ccccc2Oc2cn(CCOc3ccc4ccccc4c3)nc21	> 10^-5 g/ml
CCN1c2cc(O)ccc2Oc2cn(C)nc21	< 10^-5 g/ml
CCN1c2cc(OCC(=O)OCc3ccccc3)ccc2Oc2cn(C)nc21	10^-5 g/ml
Cn1cc2c(n1)N(CC1CCCCC1)c1ccccc1O2	> 10^-5 g/ml

SMILES	Minimum concentration (g/ml) for inhibition of Lipoxygenase in PMN Leucocytes
CC(C)N1c2ccccc2Oc2cn(C)nc21	> 10^-5 g/ml
CN1c2ccccc2Oc2cn(Cc3ccc(Cl)c(Cl)c3)nc21	> 10^-5 g/ml
FC(F)(F)c1ccc2c(c1)Nc1[nH]ncc1O2	< 10^-5 g/ml
FC(F)(F)Sc1ccc2c(c1)Nc1[nH]ncc1O2	< 10^-5 g/ml
c1ccc(N2c3ccccc3Oc3cn[nH]c32)cc1	10^-5 g/ml
CN1c2cc(OCc3ccccc3)ccc2Oc2cn[nH]c21	< 10^-5 g/ml
COc1ccc2c(c1)Oc1cn[nH]c1N2C	< 10^-5 g/ml
COc1ccc2c(c1)Oc1cnn(C)c1N2C	> 10^-5 g/ml
c1ccc(COCCN2c3ccccc3Oc3cn[nH]c32)cc1	10^-5 g/ml
OCCN1c2ccccc2Oc2cn[nH]c21	< 10^-5 g/ml
CCN1c2ccc(OC)cc2Oc2cn[nH]c21	< 10^-5 g/ml
c1c2c(cc3c1OCO3)Oc1cn[nH]c1N2	< 10^-5 g/ml
CN1c2nn(C)cc2Cc2cccc(Br)c21 [Compound 30]	10^-5 g/ml
CCN1c2cc(OC)ccc2Oc2cnn(C)c21 [Compound 50]	10^-5 g/ml
Cn1cc2c(n1)N(Cc1ccccc1)c1ccccc1O2 [Compound 60]	> 10^-5 g/ml
CCCCOc1ccc2c(c1)N(C)c1[nH]ncc1O2 [Compound 70]	< 10^-5 g/ml
CN1c2cc(SC(F)(F)F)ccc2Oc2cn[nH]c21 [Compound 71]	< 10^-5 g/ml
CC(=O)n1cc2c(n1)N(C)c1ccccc1C2 [drawing 38]	> 10^-5 g/ml
COc1ccc2c(c1)N(C)c1[nH]ncc1O2 [drawing 47]	< 10^-6 g/ml
CCN1c2cc(OC)ccc2Oc2cnn(C)c21 [drawing 49]	10^-6 g/ml
CCOC(=O)Cn1cc2c(n1)N(C1CCCCC1)c1ccccc1O2 [drawing 50]	> 10^-5 g/ml
CN1c2ccccc2Oc2cn(C(=O)c3ccccn3)nc21 [drawing 53]	> 10^-5 g/ml
CC(=O)n1cc2c(n1)N(C)c1ccccc1O2 [drawing 55]	> 10^-5 g/ml
c1ccc2c(c1)Oc1cn[nH]c1N2C1CCCCC1 [drawing 56]	10^ -6 g/ml
c1ccc2c(c1)Oc1cn[nH]c1N2C1CCCCC1 [drawing 59]	> 10^-6 g/ml

Reference: patent publication US4552874A, “Pyrazolooxazines, pyrazolothiazines, and pryazoloquinolines and their use as medicaments” (Bayer Aktiengesellschaft, priority 1982, dated 1985)
